Consider 24 molecules from patent US20260158009A1 (GENZYME CORPORATION, priority 2023, published 2026).

In one test the test system is U937 cells. As to the kind of experiment: Cellular assay in U937 cells: activity of RIPK1 inhibitors on TNFα/zVAD.fmk-induced cell death (necroptosis), CellTiter 96 AQueous (MTS) readout. It counts as cell-based. As to conditions: Homo sapiens, U-937. In short, it runs like this: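 Necroptosis was measured by viable-cell MTS reduction (4 h, absorbance 490 nm) after overnight (18–24 h) 37° C culture. Cell suspensions of U937 cells carried TNFα (100 ng/ml) plus zVAD.fmk (50 μM) before compound was added. A 10-point curve (10 μM–0.26 nM or 1 μM–0.07 nM) was run in duplicate, normalised to the control lacking TNFα/zVAD.fmk.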

Test [1] concerns the target T1, hRIPK1 (aa 1-375) fusion protein (Homo sapiens, UniProt Q13546).
T1 construct: hRIPK1 (aa 1-375) fusion protein
T1 sequence (Q13546 1-375): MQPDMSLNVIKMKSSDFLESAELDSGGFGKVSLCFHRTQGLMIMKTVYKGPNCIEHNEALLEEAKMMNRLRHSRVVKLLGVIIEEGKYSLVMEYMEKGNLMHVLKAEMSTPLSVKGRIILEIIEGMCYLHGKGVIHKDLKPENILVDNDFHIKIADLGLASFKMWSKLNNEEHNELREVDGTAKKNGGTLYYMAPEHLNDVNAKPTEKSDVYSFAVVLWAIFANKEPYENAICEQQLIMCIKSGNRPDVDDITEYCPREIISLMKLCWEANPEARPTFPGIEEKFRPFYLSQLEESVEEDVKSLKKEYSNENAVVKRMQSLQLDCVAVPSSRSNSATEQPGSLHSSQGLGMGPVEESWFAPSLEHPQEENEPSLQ
As to the kind of experiment: ADP-Glo kinase assay: catalytic activity of RIPK1 (autophosphorylation, conversion of ATP to ADP). Format: biochemical. A digest of the protocol:
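The readout was ADP-Glo luminescence after a 240 min rt autophosphorylation reaction with 50 μM ATP, following 30 min preincubation of 3.6 μg/ml hRIPK1 (aa 1-375) fusion with compound at 33300-1.69 nM final in 1% DMSO. Values came from Levenberg-Marquardt nonlinear fits.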

Structures are written as SMILES.

One may read the IC50 as the concentration needed to halve the response being measured. A high value points to weaker potency. Regarding `Cc1nnc2ccc(C[C@H]3CC[C@H](C(=O)N4OCC[C@H]4c4cc(F)cc(C#N)c4)CC3)cn12` [compound 224, trans-3-fluoro-5-[(3S)-2-[4-[(3-methyl-[1,2,4]triazolo[4,3-a]pyridin-6-yl)methyl]cyclohexanecarbonyl]isoxazolidin-3-yl]benzonitrile], the results for the IC50 (in the test with U937 cells; in test [1]) were 17 nM and 35 nM, respectively.

For `Cc1nc([C@@H]2CCON2C(=O)[C@H]2CC[C@H](Cn3ncc4ncc(C#N)cc43)CC2)cs1` [compound 199, trans-1-[[4-[(3S)-3-(2-methylthiazol-4-yl)isoxazolidine-2-carbonyl]cyclohexyl]methyl]pyrazolo[4,3-b]pyridine-6-carbonitrile], the IC50 with U937 cells was determined as 51 nM; in test [1] it was 18 nM.

As to `N#Cc1cncc([C@@H]2CCON2C(=O)[C@H]2CC[C@H](Cn3ccc4c(F)cc(C#N)cc43)CC2)c1` [compound 130, trans-1-((4-((S)-3-(5-cyanopyridin-3-yl)isoxazolidine-2-carbonyl)cyclohexyl)methyl)-4-fluoro-1H-indole-6-carbonitrile], the IC50 in the test on U937 cells amounted to 2 nM; in test [1], 11 nM.

Regarding `Cc1ncc(F)cc1C[C@H]1CC[C@H](C(=O)N2OCC[C@H]2c2cnccn2)CC1` [compound 180, trans-[4-[(5-fluoro-2-methyl-3-pyridyl)methyl]cyclohexyl]-[(3S)-3-pyrazin-2-ylisoxazolidin-2-yl]methanone], the IC50 was 11 nM with U937 cells and 32 nM in test [1].

In the case of `N#Cc1cc(F)cc([C@@H]2CCON2C(=O)[C@H]2CC[C@H](Cn3ccc4cc(F)ccc43)CC2)c1` [compound 95, trans-3-fluoro-5-((S)-2-(4-((5-fluoro-1H-indol-1-yl)methyl)cyclohexane-1-carbonyl)isoxazolidin-3-yl)benzonitrile], the IC50 with U937 cells is 4 nM; in test [1] it was 22 nM.

On to `Cc1cc(-c2cncc(C[C@H]3CC[C@H](C(=O)N4OCC[C@H]4c4cnccn4)CC3)c2)n(C)n1` [compound 305, trans-[4-[[5-(2,5-dimethylpyrazol-3-yl)-3-pyridyl]methyl]cyclohexyl]-[(3S)-3-pyrazin-2-ylisoxazolidin-2-yl]methanone], for which the half-maximal inhibitory concentration (IC50) with U937 cells was 43 nM; in test [1], 29 nM.

Take `N#Cc1cc(F)cc([C@@H]2CCON2C(=O)[C@H]2CC[C@H](Cc3cc(F)c4c(c3)C(=O)NC4)CC2)c1` [compound 219, trans-3-fluoro-5-[(3S)-2-[4-[(7-fluoro-3-oxo-isoindolin-5-yl)methyl]cyclohexanecarbonyl]isoxazolidin-3-yl]benzonitrile]: the values for the IC50 (in the test on U937 cells; in test [1]) were 3 nM and 17 nM, respectively.

In the case of `N#Cc1cc(F)cc([C@@H]2CCON2C(=O)[C@H]2CC[C@H](Cc3cncnc3)CC2)c1` [compound 247, trans-3-fluoro-5-[(3S)-2-[4-(pyrimidin-5-ylmethyl)cyclohexanecarbonyl]isoxazolidin-3-yl]benzonitrile], the concentration for half-maximal inhibition (IC50) amounted to 136 nM in the test with U937 cells and 22 nM in test [1].

Take `Cc1cn2nc(C[C@H]3CC[C@H](C(=O)N4OCC[C@H]4c4cc(F)cc(C#N)c4)CC3)c(C)cc2n1` [compound 292, trans-3-[(3S)-2-[4-[(2,7-dimethylimidazo[1,2-b]pyridazin-6-yl)methyl]cyclohexanecarbonyl]isoxazolidin-3-yl]-5-fluoro-benzonitrile]: the values for the IC50 (with U937 cells; in test [1]) were 4 nM and 14 nM, respectively.

In the case of `COc1cncc([C@@H]2CCON2C(=O)[C@H]2CC[C@H](Cn3ncc4ccc(C(N)=O)cc43)CC2)n1` [Compound 201, trans-1-[[4-[(3S)-3-(6-methoxypyrazin-2-yl)isoxazolidine-2-carbonyl]cyclohexyl]methyl]indazole-6-carboxamide], the IC50 with U937 cells stood at 190 nM; in test [1], 62 nM.

`Cc1nccn1-c1cc(F)cc(C[C@H]2CC[C@H](C(=O)N3OCC[C@H]3c3cc(F)cc(C#N)c3)CC2)c1` [compound 216, trans-3-fluoro-5-[(3S)-2-[4-[[3-fluoro-5-(2-methylimidazol-1-yl)phenyl]methyl]cyclohexanecarbonyl]isoxazolidin-3-yl]benzonitrile]: the IC50 worked out at 10 nM with U937 cells and 15 nM in test [1].

In the case of `N#Cc1cc(F)cc([C@@H]2CCON2C(=O)[C@H]2CC[C@H](Cn3ccc4ccncc43)CC2)c1` [compound 16, trans-3-((S)-2-(4-((1H-pyrrolo[2,3-c]pyridin-1-yl)methyl)cyclohexane-1-carbonyl)isoxazolidin-3-yl)-5-fluorobenzonitrile], the IC50 in the test on U937 cells turned out to be 6 nM; in test [1], 39 nM.

Take `Cc1cc([C@@H]2CCON2C(=O)[C@H]2CC[C@H](Cn3cc4c(F)cc(C#N)cc4n3)CC2)co1` [compound 42, trans-4-fluoro-2-((4-((S)-3-(5-methylfuran-3-yl)isoxazolidine-2-carbonyl)cyclohexyl)methyl)-2H-indazole-6-carbonitrile]: the figures for the IC50 (in the test on U937 cells; in test [1]) were 119 nM and 39 nM, respectively.

In the case of `N#Cc1cc(F)cc([C@@H]2CCON2C(=O)[C@H]2CC[C@H](Cn3ccc4cc(F)c(C(N)=O)cc43)CC2)c1` [compound 76, trans-1-((4-((S)-3-(3-cyano-5-fluorophenyl)isoxazolidine-2-carbonyl)cyclohexyl)methyl)-5-fluoro-1H-indole-6-carboxamide], the results for the 50% inhibitory concentration (IC50) (in the test with U937 cells; in test [1]) were 8 nM and 17 nM, respectively.

For `Cc1cc(C[C@H]2CC[C@H](C(=O)N3OCC[C@H]3c3cnccn3)CC2)c(F)cn1` [compound 394, trans-[4-[(5-fluoro-2-methylpyridin-4-yl)methyl]cyclohexyl]-[(3S)-3-pyrazin-2-yl-1,2-oxazolidin-2-yl]methanone], the IC50 in the test with U937 cells was 5 nM; in test [1] it was 14 nM.

In the case of `Cc1nc([C@@H]2CCON2C(=O)[C@H]2CC[C@H](Cn3cc4ccc(C(N)=O)cc4n3)CC2)cs1` [Compound 233, trans-2-[[4-[(3S)-3-(2-methylthiazol-4-yl)isoxazolidine-2-carbonyl]cyclohexyl]methyl]indazole-6-carboxamide], the IC50 worked out at 384 nM in the test with U937 cells and 114 nM in test [1].

`N#Cc1cc2c(ccn2C[C@H]2CC[C@H](C(=O)N3OCC[C@H]3c3cc(F)cc(F)c3)CC2)cc1F` [compound 23, trans-1-((4-((S)-3-(3,5-difluorophenyl)isoxazolidine-2-carbonyl)cyclohexyl)methyl)-5-fluoro-1H-indole-6-carbonitrile]: the results for the IC50 (in the test with U937 cells; in test [1]) were 3 nM and 21 nM, respectively.

Turning to `O=C1NCc2c(F)cc(C[C@H]3CC[C@H](C(=O)N4OCC[C@H]4c4cnccn4)CC3)cc21` [compound 213, trans-4-fluoro-6-[[4-[(3S)-3-pyrazin-2-ylisoxazolidine-2-carbonyl]cyclohexyl]methyl]isoindolin-1-one], the IC50 in the test on U937 cells was 16 nM; in test [1], 19 nM.

Consider `O=C([C@H]1CC[C@H](Cc2ccc(C3(O)COC3)cc2)CC1)N1OCC[C@H]1c1cc(F)cc(F)c1` [compound 171, trans-[(3S)-3-(3,5-difluorophenyl)isoxazolidin-2-yl]-[4-[[4-(3-hydroxyoxetan-3-yl)phenyl]methyl]cyclohexyl]methanone], for which the results for the 50% inhibitory concentration (IC50) (in the test on U937 cells; in test [1]) were 6 nM and 19 nM, respectively.

For `N#Cc1cncc([C@@H]2CCON2C(=O)[C@H]2CC[C@H](Cc3cc(F)cc(CO)c3)CC2)c1` [compound 257, trans-5-[(3S)-2-[4-[[3-fluoro-5-(hydroxymethyl)phenyl]methyl]cyclohexanecarbonyl]isoxazolidin-3-yl]pyridine-3-carbonitrile], the figures for the half-maximal inhibitory concentration (IC50) (with U937 cells; in test [1]) were 2 nM and 10 nM, respectively.

On to `Cc1cn2ncc(C[C@H]3CC[C@H](C(=O)N4OCC[C@H]4c4cccc(F)c4)CC3)cc2n1` [compound 323, [2-fluoro-4-[(3S)-2-[4-[(2-methylimidazo[1,2-b]pyridazin-7-yl)methyl]cyclohexanecarbonyl]isoxazolidin-3-yl]phenyl]], for which the IC50 with U937 cells was determined as 6 nM; in test [1], 10 nM.

For the molecule `Cn1nccc1-c1cc(F)cc(C[C@H]2CC[C@H](C(=O)N3OCC[C@H]3c3cc(F)cc(C#N)c3)CC2)c1` [compound 214, trans-3-fluoro-5-[(3S)-2-[4-[[3-fluoro-5-(2-methylpyrazol-3-yl)phenyl]methyl]cyclohexanecarbonyl]isoxazolidin-3-yl]benzonitrile], the IC50 with U937 cells was found to be 4 nM; in test [1], 20 nM.

For `CNC(=O)c1cc(F)cc(C[C@H]2CC[C@H](C(=O)N3OCC[C@H]3c3cncc(C#N)c3)CC2)c1` [compound 163, trans-3-[[4-[(3S)-3-(5-cyano-3-pyridyl)isoxazolidine-2-carbonyl]cyclohexyl]methyl]-5-fluoro-N-methyl-benzamide], the IC50 in the test on U937 cells stood at 10 nM; in test [1] it was 5 nM.

With `Cc1cn2cc(C[C@H]3CC[C@H](C(=O)N4OCC[C@H]4c4cc(F)cc(F)c4)CC3)cc(F)c2n1` [compound 281, trans-[(3S)-3-(3,5-difluorophenyl)isoxazolidin-2-yl]-[4-[(8-fluoro-2-methyl-imidazo[1,2-a]pyridin-6-yl)methyl]cyclohexyl]methanone], the IC50 with U937 cells turned out to be 5 nM; in test [1], 19 nM.
